Measurements published in patent US20180133186A1, “PREVENTATIVE TREATMENT OF ALZHEIMER'S DISEASE” (priority 2016, published 2018).
Where two headings read alike, the source gives them in different places.

Key:
[1] = system: Metastatic liver; settings: cited from earlier work
[2] = system: humans; settings: cited from earlier work
[3] = system: CVN-AD mice; test: 2-day radial arm water maze in CVN-AD mice; format: in vivo, mouse; settings: n=12
From the text: Alzheimer's disease (CVN-AD) mice are modified non-human warm-blooded vertebrate animals in which a biologically active human APP polypeptide is expressed, and in which function of its inducible Nitric Oxide Synthase (iNOS) protein is reduced as compared to a non-modified animal. CVN-AD mice are described in U.S. Patent Publication No. 20090081128, the contents of which are incorporated by reference in their entirety. […] (2) Aβ deposition around blood vessels resembling pathology observed in humans with cerebral amyloid angiopathy ([…].); (3) hyperphosphorylated and aggregated mouse tau; neuronal loss; worsening behavioral deficits with time (Colton, C.); and (4) significant hippocampal and fornix volume loss (Badea, A.). […] This age in the CVN-AD mouse model is considered as representative of early Alzheimer's disease in humans (Colton, C.). The number of mice in each group is 12.

[4] = system: melanoma; settings: cited from earlier work
[5] = system: melanoma; settings: 6 g/m^2/d oral escalated to 12 g/m^2/d, n = 24; cited from earlier work
[6] = system: humans; test: Predicted dosage for Alzheimer's Clinical Trial; format: in vivo, human; settings: 6 mos-4 yrs
[7] = system: Abeta peptides; test: Abeta 40 and Abeta 42 peptides in whole brain lysates of CVN-AD mice; format: in vivo, mouse; settings: DFMO 0.3 or 30 mg/kg vs water, n=12
From the text: The average levels of soluble Abeta 42 peptide and soluble Abeta40 peptide (plus and minus the standard error of the mean) measured in whole brain lysates are shown in FIG. 3B. […] The number of mice for each group was 12.

[8] = system: CVN-AD mice
[9] = system: Normal volunteers; settings: cited from earlier work
[10] = system: CVN-AD mice; format: in vivo
Method: (§1) This example was carried out as schematically illustrated in FIG. 1. […] Brains from each mouse were harvested at the end the third day of the rotorod procedure. Brain tissue lysates from each mouse in the experiment were used to determine the levels of Abeta 40 and Abeta 42 peptides and brain metabolites.

[11] = system: Trypanosoma brucei gambiense; settings: cited from earlier work; for effective dosage for successful treatment of trypanosomiasis: humans
[12] = target: T1, ornithine decarboxylase (Mus musculus, UniProt P00860); test: Whole brain lysate metabolite levels related to ornithine decarboxylase activity; format: in vivo
T1 construct: from tissue; host or cells: brain of CVN-AD mice (in vivo dosing; whole brain lysates analysed for metabolites)
T1 sequence (P00860 1-461): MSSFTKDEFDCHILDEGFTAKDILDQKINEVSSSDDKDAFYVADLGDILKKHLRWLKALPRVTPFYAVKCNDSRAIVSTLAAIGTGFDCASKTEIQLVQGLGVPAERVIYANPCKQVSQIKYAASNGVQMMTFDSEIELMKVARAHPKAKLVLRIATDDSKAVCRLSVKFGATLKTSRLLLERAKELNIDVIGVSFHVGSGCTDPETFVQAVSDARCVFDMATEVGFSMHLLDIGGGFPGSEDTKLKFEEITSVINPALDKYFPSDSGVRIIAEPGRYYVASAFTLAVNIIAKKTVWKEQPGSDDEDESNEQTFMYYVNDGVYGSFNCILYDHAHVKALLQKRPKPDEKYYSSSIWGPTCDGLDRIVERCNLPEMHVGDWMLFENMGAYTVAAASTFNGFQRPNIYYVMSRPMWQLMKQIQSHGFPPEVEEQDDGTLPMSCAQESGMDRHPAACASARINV
Method: as §1
Humans with Alzheimer's disease show elevation of these metabolites (Inoue K).

[13] = oral delivery [Lipton A] [Pasic T R]
[14] = 2 g/m^2/d oral, n = 16, 75 days
[15] = 14. g/m^2/d (400 mg/kg/day) IV, n = 1055
[16] = 14.8 g/m^2/d (400 mg/kg/day) ORAL, n = 25
[17] = 30 mg/kg, average +/- sem, n = 11-12 mice

SMILES: NCCC[C@](N)(C(=O)O)C(F)F [DFMO, alpha-difluoromethylornithine]
- Other toxicity detected, subjects affected ([1]; 0.5 and 1 g/m^2/d IV): 0/3) at 0.5 and 1 g/m^2/d
- Ototoxicity, subjects affected ([1]; 0.5 and 1 g/m^2/d IV): Ototoxicity (0/3) at 0.5
- Other toxicity detected, subjects affected ([1]; 2 g/m^2/d IV): (0/3) at 2 g/m^2/d
- Ototoxicity, subjects affected ([1]; 2 g/m^2/d IV): Ototoxicity (3/3) at 2 g/m^2/d
- dose with dose limiting ototoxicity [1, 13]: 1500 mg/m^2/d
- Brain-based toxicity: deaths ([2]; 14. g/m^2/d IV, n = 1055): 15 deaths
- Brain-based toxicity: seizures ([2]; 14. g/m^2/d IV, n = 1055): (4%)
- Other toxicity detected: abdominal pain ([2]; 14. g/m^2/d IV, n = 1055): pain (37.7%),
- Other toxicity detected: headache ([2]; 14. g/m^2/d IV, n = 1055): (31.2%),
- Other toxicity detected: diarrhea ([2]; 14.8 g/m^2/d ORAL, n = 25): (58.3%)
- Other toxicity detected: headache ([2]; 14.8 g/m^2/d ORAL, n = 25): (16.7%),
- average number of errors in finding an escape platform after 2 days of trials, radial arm water maze ([3]; 0.3 mg/kg (0.9 mg/m^2) oral gavage 3x/wk 14 weeks vs water only): statistically significantly decreased
- average number of errors in finding an escape platform after 2 days of trials, radial arm water maze ([3]; 30 mg/kg (92.5 mg/m^2) oral gavage 3x/wk 14 weeks vs water only): more so
- Ototoxicity [4, 14]: Ototoxicity (10%)
- Ototoxicity trend with dose and duration [4, 14]: Increasing with dose
- dose with mild ototoxicity ([4]; oral delivery [Croghan M K]): 2000 mg/m^2/d
- Other toxicity detected (low grade) [5]: 67% (low grade)
- Ototoxicity, % of treated subjects [5]: Ototoxicity in 50% of
- Ototoxicity, subjects affected [5]: (12/24)
- Predicted Dose limiting effects ([6]; estimated human dose 36 mg/m^2 daily): none
- Predicted Dose limiting effects ([6]; estimated human dose 109 mg/m^2 daily): none
- Predicted Dose limiting effects ([6]; estimated human dose 328 mg/m^2 daily): none
- average level of insoluble Abeta40 peptide in whole brain lysates [7]: No significant change
- average level of insoluble Abeta 42 peptide in whole brain lysates [7]: No significant change
- soluble Abeta 40 levels in whole brain lysates [7]: statistically significantly decreased
- average number of seconds on the rotorod over 3 days of testing ([8]; DFMO 0.3 or 30 mg/kg vs water only): No change
- toxic effect on motor skills ([8]; at the doses used (0.3, 30 mg/kg)): no toxic effect
- Other toxicity detected: vomiting/diarrhea ([9]; 0.5-3 g/m^2/d oral, n = 13): Not study limiting
- dose above which ototoxicity is dose dependent, increasing toxicity ([9]; 0.5-3 g/m^2/d oral, n = 13): (12%); >1 g/m^2/d is
- Ototoxicity ([9]; 0.5 g/m^2/d oral, same as placebo (12%)): (9%) same as placebo
- dose with mild reversible ototoxicity (no adverse event grade assigned) [9, 13]: 1000 mg/m^2/d
- Dose limiting events ([10]; 0.3 mg/kg, 14 wks): none
- On target in brain ([10]; 0.3 mg/kg, 14 wks): yes
- Dose limiting events ([10]; 10 mg/kg, 14 wks): none
- On target in brain ([10]; 10 mg/kg, 14 wks (data not shown)): yes (data not
- Dose limiting events ([10]; 30 mg/kg, 14 wks): none
- On target in brain ([10]; 30 mg/kg, 14 wks): yes
- adverse events in DFMO treated CVN-AD mice ([10]; dose range 0.9 to 90 mg/m2/d): No observable adverse events
- Efficacy: clearance of trypanosomes [11, 15]: Prolonged clearance
- Efficacy: confirmed cured [11, 15]: 44% confirmed
- Efficacy: probable cure [11, 15]: cured, 45%
- Efficacy: clearance of brain trypanosomes [11, 16]: Partial clearance of
- Efficacy: death [11, 16]: weakness). No
- Efficacy: signs/symptoms of trypanosomiasis [11, 16]: Reduced
- effective dosage for successful treatment of trypanosomiasis ([11]; intravenous (IV)): 14800 mg/m2/d
- effective dosage for successful treatment of trypanosomiasis ([11]; orally): 14800 mg/m2/d
- Observed difference, putrescine (p; significantly decreased with DFMO-treatment) ([12]; 30 mg/kg vs water only): p < 0.05
- Observed difference, spermidine (p; significantly decreased with DFMO-treatment) ([12]; 30 mg/kg vs water only): p < 0.01
- putrescine, CVN-AD brain lysate levels DFMO-treated [12, 17]: 0.49 ± 0.02 µM/g
- spermidine, CVN-AD brain lysate levels DFMO-treated [12, 17]: 12.2 ± 0.63 µM/g
- brain levels of putrescine compared to untreated CVN-AD mice ([12]; DFMO treatment): significantly lower
- brain levels of spermidine compared to untreated CVN-AD mice ([12]; DFMO treatment): significantly lower
- brain levels of spermine compared to untreated CVN-AD mice ([12]; DFMO treatment): significantly lower
